Test results taken from patent US6358885B1, “Substituted phenylheterocyclic herbicides” (Mississippi State University, priority 1992, dated 2002).

Tests used:
[1] = tested on: chickweed; assay: Test B preemergence/postemergence greenhouse plant response rating 0 to 10; assay type: in vivo, Stellaria media; details: 0 to 10 scale
Method in brief: (§1)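 Test chemicals were sprayed onto freshly planted seed and, concurrently, onto young plants between the one and four leaf stage. After a twelve- to sixteen-day greenhouse period, each species was visually compared with untreated controls.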

[2] = tested on: corn; assay: as above; assay type: in vivo, Zea mays; details: 0 to 10 scale
Method in brief: as §1

[3] = tested on: morningglory; assay: as above; assay type: in vivo, Ipomoea hederacea; details: 0 to 10 scale
Method in brief: as §1

[4] = tested on: soybean; assay: as above; assay type: in vivo, Glycine max; details: 0 to 10 scale
Method in brief: as §1

[5] = tested on: sugar beet; assay: as above; assay type: in vivo, Beta vulgaris; details: 0 to 10 scale
Method in brief: as §1

[6] = tested on: velvetleaf; assay: as above; assay type: in vivo, Abutilon theophrasti; details: 0 to 10 scale
Method in brief: as §1

[7] = tested on: corn; assay: Test C preemergence/postemergence greenhouse plant response rating 0 to 100; assay type: in vivo, Zea mays; details: for Plant response rating, Corn: 0 to 100 scale
Method in brief: (§2)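 Compounds in non-phytotoxic solvent went onto sandy loam before emergence (seeded one day earlier) or onto plants at the one-to-four leaf stage. Duck salad was treated via flood water (~2.5 cm, maintained) over silt loam.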

[8] = tested on: crabgrass; assay: as above; assay type: in vivo, Digitaria sanguinalis; details: for Plant response rating, Crabgrass: 0 to 100 scale
Method in brief: as §2

[9] = tested on: lambsquarters; assay: as above; assay type: in vivo, Chenopodium album; details: for Plant response rating Lambsquarters: 0 to 100 scale
Method in brief: as §2

[10] = tested on: morningglory; assay: as above; assay type: in vivo, Ipomoea hederacea; details: for Plant response rating, Morningglory: 0 to 100 scale
Method in brief: as §2

[11] = tested on: velvetleaf; assay: as above; assay type: in vivo, Abutilon theophrasti; details: for Plant response rating, Velvetleaf: 0 to 100 scale
Method in brief: as §2

[12] = tested on: wheat; assay: as above; assay type: in vivo, Triticum aestivum; details: for Plant response rating, Wheat: 0 to 100 scale
Method in brief: as §2

Fc1cc(Cl)ccc1-c1nn2c(c1Br)CCCC2 [Compound 52]
Plant response rating, Chickweed ([1]; POSTEMERGENCE, Rate 50 g/ha): 5
Plant response rating, Chickweed ([1]; POSTEMERGENCE, Rate 200 g/ha): 7
Plant response rating, Chickweed ([1]; PREEMERGENCE, Rate 50 g/ha): 9
Plant response rating, Chickweed ([1]; Rate 200 g/ha, PREEMERGENCE): 9
Plant response rating, Corn ([2]; POSTEMERGENCE, Rate 50 g/ha): 6
Plant response rating, Corn ([2]; POSTEMERGENCE, Rate 200 g/ha): 8
Plant response rating, Corn ([2]; PREEMERGENCE, Rate 50 g/ha): 1
Plant response rating, Corn ([2]; Rate 200 g/ha, PREEMERGENCE): 4
Plant response rating, Morningglory ([3]; POSTEMERGENCE, Rate 50 g/ha): 9
Plant response rating, Morningglory ([3]; PREEMERGENCE, Rate 50 g/ha): 0
Plant response rating, Morningglory ([3]; Rate 200 g/ha, POSTEMERGENCE): 9
Plant response rating, Morningglory ([3]; Rate 200 g/ha, PREEMERGENCE): 2
Plant response rating, Soybean ([4]; POSTEMERGENCE, Rate 50 g/ha): 10
Plant response rating, Soybean ([4]; PREEMERGENCE, Rate 50 g/ha): 0
Plant response rating, Soybean ([4]; Rate 200 g/ha, POSTEMERGENCE): 8
Plant response rating, Soybean ([4]; Rate 200 g/ha, PREEMERGENCE): 0
Plant response rating, Sugar beet ([5]; POSTEMERGENCE, Rate 50 g/ha): 10
Plant response rating, Sugar beet ([5]; PREEMERGENCE, Rate 50 g/ha): 9
Plant response rating, Sugar beet ([5]; Rate 200 g/ha, PREEMERGENCE): 10
Plant response rating, Velvetleaf ([6]; POSTEMERGENCE, Rate 50 g/ha): 9
Plant response rating, Velvetleaf ([6]; PREEMERGENCE, Rate 50 g/ha): 8
Plant response rating, Velvetleaf ([6]; Rate 200 g/ha, POSTEMERGENCE): 10
Plant response rating, Velvetleaf ([6]; Rate 200 g/ha, PREEMERGENCE): 10
Plant response rating, Corn ([7]; POSTEMERGENCE, 125 g/ha): 50
Plant response rating (0 to 100), Corn ([7]; POSTEMERGENCE, Rate 2 g/ha): 20
Plant response rating, Corn ([7]; PREEMERGENCE, 125 g/ha): 0
Plant response rating (0 to 100), Corn ([7]; PREEMERGENCE, Rate 2 g/ha): 0
Plant response rating (0 to 100), Corn ([7]; Rate 8 g/ha, POSTEMERGENCE): 30
Plant response rating (0 to 100), Corn ([7]; Rate 8 g/ha, PREEMERGENCE): 0
Plant response rating (0 to 100), Corn ([7]; Rate 31 g/ha, POSTEMERGENCE): 40
Plant response rating (0 to 100), Corn ([7]; Rate 31 g/ha, PREEMERGENCE): 0
Plant response rating, Crabgrass ([8]; POSTEMERGENCE, 125 g/ha): 70
Plant response rating (0 to 100), Crabgrass ([8]; POSTEMERGENCE, Rate 2 g/ha): 10
Plant response rating, Crabgrass ([8]; PREEMERGENCE, 125 g/ha): 80
Plant response rating (0 to 100), Crabgrass ([8]; PREEMERGENCE, Rate 2 g/ha): 0
Plant response rating (0 to 100), Crabgrass ([8]; Rate 8 g/ha, POSTEMERGENCE): 30
Plant response rating (0 to 100), Crabgrass ([8]; Rate 8 g/ha, PREEMERGENCE): 0
Plant response rating (0 to 100), Crabgrass ([8]; Rate 31 g/ha, POSTEMERGENCE): 40
Plant response rating (0 to 100), Crabgrass ([8]; Rate 31 g/ha, PREEMERGENCE): 10
Plant response rating Lambsquarters ([9]; PREEMERGENCE, 125 g/ha): 100
Plant response rating (0 to 100), Lambsquarters ([9]; PREEMERGENCE, Rate 2 g/ha): 0
Plant response rating (0 to 100), Lambsquarters ([9]; Rate 8 g/ha, PREEMERGENCE): 0
Plant response rating (0 to 100), Lambsquarters ([9]; Rate 31 g/ha, PREEMERGENCE): 50
Plant response rating, Morningglory ([10]; POSTEMERGENCE, 125 g/ha): 100
Plant response rating (0 to 100), Morningglory ([10]; POSTEMERGENCE, Rate 2 g/ha): 20
Plant response rating, Morningglory ([10]; PREEMERGENCE, 125 g/ha): 0
Plant response rating (0 to 100), Morningglory ([10]; PREEMERGENCE, Rate 2 g/ha): 0
Plant response rating (0 to 100), Morningglory ([10]; Rate 8 g/ha, POSTEMERGENCE): 30
Plant response rating (0 to 100), Morningglory ([10]; Rate 8 g/ha, PREEMERGENCE): 0
Plant response rating (0 to 100), Morningglory ([10]; Rate 31 g/ha, POSTEMERGENCE): 50
Plant response rating (0 to 100), Morningglory ([10]; Rate 31 g/ha, PREEMERGENCE): 0
Plant response rating, Velvetleaf ([11]; POSTEMERGENCE, 125 g/ha): 100
Plant response rating (0 to 100), Velvetleaf ([11]; POSTEMERGENCE, Rate 2 g/ha): 50
Plant response rating, Velvetleaf ([11]; PREEMERGENCE, 125 g/ha): 100
Plant response rating (0 to 100), Velvetleaf ([11]; PREEMERGENCE, Rate 2 g/ha): 0
Plant response rating (0 to 100), Velvetleaf ([11]; Rate 8 g/ha, POSTEMERGENCE): 90
Plant response rating (0 to 100), Velvetleaf ([11]; Rate 8 g/ha, PREEMERGENCE): 30
Plant response rating (0 to 100), Velvetleaf ([11]; Rate 31 g/ha, POSTEMERGENCE): 100
Plant response rating (0 to 100), Velvetleaf ([11]; Rate 31 g/ha, PREEMERGENCE): 100
Plant response rating, Wheat ([12]; POSTEMERGENCE, 125 g/ha): 50
Plant response rating (0 to 100), Wheat ([12]; POSTEMERGENCE, Rate 2 g/ha): 10
Plant response rating, Wheat ([12]; PREEMERGENCE, 125 g/ha): 60
Plant response rating (0 to 100), Wheat ([12]; PREEMERGENCE, Rate 2 g/ha): 0
Plant response rating (0 to 100), Wheat ([12]; Rate 8 g/ha, POSTEMERGENCE): 20
Plant response rating (0 to 100), Wheat ([12]; Rate 8 g/ha, PREEMERGENCE): 0
Plant response rating (0 to 100), Wheat ([12]; Rate 31 g/ha, POSTEMERGENCE): 30
Plant response rating (0 to 100), Wheat ([12]; Rate 31 g/ha, PREEMERGENCE): 0

COCN1C(=O)COc2cc(F)c(-c3nn4c(c3Cl)CCCC4)cc21 [Compound 55]
Plant response rating, Chickweed ([1]; POSTEMERGENCE, Rate 10 g/ha): 9
Plant response rating, Chickweed ([1]; POSTEMERGENCE, Rate 50 g/ha): 10
Plant response rating, Chickweed ([1]; PREEMERGENCE, Rate 10 g/ha): 9
Plant response rating, Chickweed ([1]; PREEMERGENCE, Rate 50 g/ha): 10
Plant response rating, Corn ([2]; POSTEMERGENCE, Rate 10 g/ha): 3
Plant response rating, Corn ([2]; POSTEMERGENCE, Rate 50 g/ha): 5
Plant response rating, Corn ([2]; PREEMERGENCE, Rate 50 g/ha): 1
Plant response rating, Morningglory ([3]; POSTEMERGENCE, Rate 10 g/ha): 10
Plant response rating, Morningglory ([3]; POSTEMERGENCE, Rate 50 g/ha): 10
Plant response rating, Morningglory ([3]; PREEMERGENCE, Rate 50 g/ha): 8
Plant response rating, Soybean ([4]; POSTEMERGENCE, Rate 10 g/ha): 7
Plant response rating, Soybean ([4]; POSTEMERGENCE, Rate 50 g/ha): 9
Plant response rating, Soybean ([4]; PREEMERGENCE, Rate 50 g/ha): 0
Plant response rating, Sugar beet ([5]; POSTEMERGENCE, Rate 10 g/ha): 10
Plant response rating, Sugar beet ([5]; POSTEMERGENCE, Rate 50 g/ha): 10
Plant response rating, Sugar beet ([5]; PREEMERGENCE, Rate 50 g/ha): 10
Plant response rating, Velvetleaf ([6]; POSTEMERGENCE, Rate 10 g/ha): 10
Plant response rating, Velvetleaf ([6]; POSTEMERGENCE, Rate 50 g/ha): 9
Plant response rating, Velvetleaf ([6]; PREEMERGENCE, Rate 50 g/ha): 10
Plant response rating, Corn ([7]; POSTEMERGENCE, 62 g/ha): 50
Plant response rating (0 to 100), Corn ([7]; POSTEMERGENCE, Rate 1 g/ha): 30
Plant response rating (0 to 100), Corn ([7]; POSTEMERGENCE, Rate 4 g/ha): 40
Plant response rating (0 to 100), Corn ([7]; Rate 16 g/ha, POSTEMERGENCE): 50
Plant response rating, Crabgrass ([8]; POSTEMERGENCE, 62 g/ha): 40
Plant response rating (0 to 100), Crabgrass ([8]; POSTEMERGENCE, Rate 1 g/ha): 10
Plant response rating (0 to 100), Crabgrass ([8]; POSTEMERGENCE, Rate 4 g/ha): 10
Plant response rating (0 to 100), Crabgrass ([8]; Rate 16 g/ha, POSTEMERGENCE): 30
Plant response rating Lambsquarters ([9]; POSTEMERGENCE, 62 g/ha): 100
Plant response rating (0 to 100), Lambsquarters ([9]; POSTEMERGENCE, Rate 1 g/ha): 100
Plant response rating (0 to 100), Lambsquarters ([9]; POSTEMERGENCE, Rate 4 g/ha): 100
Plant response rating (0 to 100), Lambsquarters ([9]; Rate 16 g/ha, POSTEMERGENCE): 100
Plant response rating, Morningglory ([10]; POSTEMERGENCE, 62 g/ha): 100
Plant response rating (0 to 100), Morningglory ([10]; POSTEMERGENCE, Rate 1 g/ha): 80
Plant response rating (0 to 100), Morningglory ([10]; POSTEMERGENCE, Rate 4 g/ha): 100
Plant response rating (0 to 100), Morningglory ([10]; Rate 16 g/ha, POSTEMERGENCE): 100
Plant response rating, Velvetleaf ([11]; POSTEMERGENCE, 62 g/ha): 100
Plant response rating (0 to 100), Velvetleaf ([11]; POSTEMERGENCE, Rate 1 g/ha): 80
Plant response rating (0 to 100), Velvetleaf ([11]; POSTEMERGENCE, Rate 4 g/ha): 100
Plant response rating (0 to 100), Velvetleaf ([11]; Rate 16 g/ha, POSTEMERGENCE): 100
Plant response rating, Wheat ([12]; POSTEMERGENCE, 62 g/ha): 60
Plant response rating (0 to 100), Wheat ([12]; POSTEMERGENCE, Rate 1 g/ha): 30
Plant response rating (0 to 100), Wheat ([12]; POSTEMERGENCE, Rate 4 g/ha): 40
Plant response rating (0 to 100), Wheat ([12]; Rate 16 g/ha, POSTEMERGENCE): 50
